Experimental data as given in ChEMBL document CHEMBL5543113, “Amphiphilic α-Peptoid-deoxynojirimycin Conjugate-based Multivalent Glycosidase Inhibitor for Hypoglycemic Effect and Fluorescence Imaging” (J Med Chem, 2024).

System: Mus musculus
Assay: Hypoglycemic activity in C57BL/6J mouse assessed as decrease in PBG level at 0.8 mg/kg, po co-administered with maltose and measured after 30 mins by glucometer relative to control
Type: functional
Set-up: scale not given: the % may be the effect or the level left
Settings: 0.5 h

CCCCCCCCCCCCCCCCCCNC(=O)CN(Cc1cn(CCCCCCN2C[C@H](O)[C@@H](O)[C@H](O)[C@H]2CO)nn1)C(=O)CN(Cc1cn(CCCCCCN2C[C@H](O)[C@@H](O)[C@H](O)[C@H]2CO)nn1)C(=O)CN(Cc1cn(CCCCCCN2C[C@H](O)[C@@H](O)[C@H](O)[C@H]2CO)nn1)C(=O)CN(Cc1cn(CCCCCCN2C[C@H](O)[C@@H](O)[C@H](O)[C@H]2CO)nn1)C(C)=O
Activity: 24.5%
